{"source": "patent US4959368A", "about": "“Therapeutic agent for neurological diseases” (Mitsui Petrochemical Industries Ltd., priority 1986, dated 1990)", "key": {"Acute toxicity, mouse": {"test": "Acute toxicity, mouse", "assay_type": "in vivo", "settings": "in vivo, po, Table 6, p.o., read-out: Presumed LD50", "method": "(§1) The acute toxicity of the compounds of the invention was examined by the following method.\n(§2) Male ddy-strain 5-week old mice and male Wistar-strain 8 week old rats, five per group, were used as experimental animals. Each of the compounds was dissolved in saline and administered perorally, and the toxicity of the compound was assessed 24 hours after the administration."}, "mice": {"test_system": "mice", "test": "Acute toxicity, mouse", "assay_type": "in vivo", "settings": "24 hours", "method": "as §1, §2"}, "[1]": {"test_system": "human neuroblastoma cell line GOTO", "test": "Activity on cell line GOTO (simple method)", "assay_type": "cell-based", "settings": "Table 2 GOTO Run No. 2; 10 μg/ml; control 8.4", "method": "(§3) The biological activities in vitro of the compounds of formula (I) on cells of the nervous system were tested. The cells tested were human neuroblastoma cell line GOTO [see Sekiguchi, M., Oota, T., Sakakibara, K., Inui, N. & Fujii, G., Japan. J. Exp. Med., 49, 67-83 (1979)], and neuroblastoma cell line NB-1 [see Miyake, S., Shimo, Y., Kitamura, T., Nojyo, Y., Nakamura, T., Imkashuku, S. and Abe, T., The Autonomic Nervous System, 10, 115-120 (1973)], and mouse neuroblastoma cell line neuro-2a (Dainippon Pharmaceutical Co., Ltd.) which have been established as the cells of the nervous system. The above neuve cells were grown in an incubator at 37° C. in the presence of 5% carbon dioxide gas exponentially, and then cultivated for a certain period of time together with the compounds of formula (I).\nA culture medium [composed of 45% of RPMI 1640 medium, 45% modified Eagle's medium (MEM) and 10% of fetal calf serum (FCS) and containing penicillin G sodium (100 units/ml) and streptomycin sulfate (100 microgram/ml)] containing neurobalstoma cell line GOTO in the logarithmic growth period was poured in an amount of 2 ml each into polystyrene dishes (35 mm; made by Corning Co.) so that the cell concentration was 2 to 6×10^4 cells per dish, and the cells were cultured for 1 to 2 days in a carbon dioxide gas incubator containing 5% of carbon dioxide gas in air at 37° C. Then, the culture fluid was removed, and 2 ml of a fresh serum-free culture fluid (consisting of 50% of RPMI medium and 50% of MEM medium and containing penicillin G sodium and streptomycin sulfate in the same amounts as above) was added. At the same time, a presterilized PBS solution (phosphate buffered saline) of each of the test compounds in various concentrations was added to each of the dishes. After culturing for 24 hours, the number of living cells was counted. Furthermore, the culture was photographed, and from the photos, the number and length of neurites per cell were measured. The numer of living cells was counted for 3 to 6 dishes by resistance to staining with erythrosine dye. The number and length of the neurites were measured with regard to 6 photos (more than 200 cells per photo).\n(§4) As a simple method of evaluation, the number of cells have neurites with a length equal to, or larger than, the long diameter of the cell was divided by the total number of cells."}, "[2]": {"test_system": "human neuroblastoma cell line GOTO", "test": "Activity on neuroblastoma cell line GOTO (cell number, number and length of neurites)", "assay_type": "cell-based", "settings": "for Number of cells: control 3.17", "how_it_was_run": "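GOTO cells were cultured 1–2 days at 37 °C, 5% CO2, then switched to serum-free RPMI/MEM (1:1) with compounds in PBS at various concentrations for 24 h. Living cells were counted by erythrosine exclusion (3–6 dishes); neurite number and length per cell were measured from photographs.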"}, "[3]": {"test_system": "mouse neuroblastoma cell line neuro-2a", "test": "Activity on cell line neuro-2a (simple method)", "assay_type": "cell-based", "settings": "Table 2 neuro-2a Run No. 1, control 7.9", "method": "as §3, with “(I). […]” for “(I).”\nas §4"}, "Acute toxicity, rat": {"test": "Acute toxicity, rat", "assay_type": "in vivo", "settings": "in vivo, po, Table 6, p.o., read-out: Presumed LD50", "method": "as §1, §2"}, "rats": {"test_system": "rats", "test": "Acute toxicity, rat", "assay_type": "in vivo", "settings": "24 hours", "method": "as §1, §2"}}, "data": [{"smiles": "CCn1ccc2nc(N3CCNCC3)ncc2c1=O", "note": "[Compound 710]", "values": [{"measurement": "LD50 at 24 h", "setting": "Acute toxicity, mouse", "result": "300 to 550", "unit": "mg/kg"}, {"measurement": "Number of dead animals/number of test animals", "setting": "mice; Table 6, 300 mg/kg p.o.", "result": "0/5"}, {"measurement": "Number of dead animals/number of test animals", "setting": "mice; Table 6, 500 mg/kg p.o.", "result": "3/5"}, {"measurement": "Number of dead animals/number of test animals", "setting": "mice; Table 6, 1000 mg/kg p.o.", "result": "5/5"}, {"measurement": "Average of the proportions", "setting": "[1]", "result": 15.02, "unit": "%"}, {"measurement": "Number of neurites/cell (mean ± S.D.)", "setting": "[2]; Table 1 Run No. 1, 10 μg/ml, control 2.09 ± 0.61", "result": "2.12 ± 0.51", "unit": "neurites/cell"}, {"measurement": "Number of cells (mean ± S.E.)", "setting": "[2]; Table 1 Run No. 1, 10 μg/ml, control 14.34 ± 0.72", "result": "19.18 ± 0.67 × 10^4 /dish"}, {"measurement": "Length of neurites (mean ± S.D.)", "setting": "[2]; Table 1 Run No. 1, 10 μg/ml, control 70.10 ± 43.03", "result": "86.10 ± 50.70", "unit": "μm/cell"}, {"measurement": "Number of neurites/cell (mean ± S.D.)", "setting": "[2]; Table 1 Run No. 1, 100 μg/ml, control 2.09 ± 0.61", "result": "1.71 ± 0.59", "unit": "neurites/cell"}, {"measurement": "Number of cells (mean ± S.E.)", "setting": "[2]; Table 1 Run No. 1, 100 μg/ml, control 14.34 ± 0.72", "result": "11.92 ± 0.66 × 10^4 /dish"}, {"measurement": "Length of neurites (mean ± S.D.)", "setting": "[2]; Table 1 Run No. 1, 100 μg/ml, control 70.10 ± 43.03", "result": "47.34 ± 35.11", "unit": "μm/cell"}, {"measurement": "Number of neurites/cell (mean ± S.D.)", "setting": "[2]; Table 1 Run No. 2, 1 μg/ml, control 2.06 ± 0.60", "result": "2.14 ± 0.63", "unit": "neurites/cell"}, {"measurement": "Number of cells (mean ± S.E.)", "setting": "[2]; Table 1 Run No. 2, 1 μg/ml, control 12.30 ± 1.48", "result": "17.44 ± 1.50 × 10^4 /dish"}, {"measurement": "Length of neurites (mean ± S.D.)", "setting": "[2]; Table 1 Run No. 2, 1 μg/ml, control 55.00 ± 37.26", "result": "73.74 ± 43.49", "unit": "μm/cell"}, {"measurement": "Number of neurites/cell (mean ± S.D.)", "setting": "[2]; Table 1 Run No. 2, 10 μg/ml, control 2.06 ± 0.60", "result": "2.09 ± 0.62", "unit": "neurites/cell"}, {"measurement": "Number of cells (mean ± S.E.)", "setting": "[2]; Table 1 Run No. 2, 10 μg/ml, control 12.30 ± 1.48", "result": "15.15 ± 2.26 × 10^4 /dish"}, {"measurement": "Length of neurites (mean ± S.D.)", "setting": "[2]; Table 1 Run No. 2, 10 μg/ml, control 55.00 ± 37.26", "result": "62.74 ± 35.64", "unit": "μm/cell"}, {"measurement": "Number of cells", "setting": "[2]; Table 1 Run No. 3, 0.0 μg/ml (so in the source)", "result": "3.66 × 10^4 /dish"}, {"measurement": "Number of neurites/cell (mean ± S.D.)", "setting": "[2]; Table 1 Run No. 3, 1 μg/ml, control 1.94 ± 0.69, all *P <0.01", "result": "2.17 ± 0.79", "unit": "neurites/cell"}, {"measurement": "Number of cells", "setting": "[2]; Table 1 Run No. 3, 1 μg/ml", "result": "3.92 × 10^4 /dish"}, {"measurement": "Length of neurites (mean ± S.D.)", "setting": "[2]; Table 1 Run No. 3, 1 μg/ml, control 45.13 ± 22.71, all *P <0.01", "result": "60.93 ± 23.66", "unit": "μm/cell"}, {"measurement": "Average of the proportions", "setting": "[3]; 1 μg/ml", "result": 15.97, "unit": "%"}, {"measurement": "Average of the proportions", "setting": "[3]; 10 μg/ml", "result": 13.70, "unit": "%"}, {"measurement": "LD50 at 24 h", "setting": "Acute toxicity, rat", "result": "550 to 1000", "unit": "mg/kg"}, {"measurement": "Number of dead animals/number of test animals", "setting": "rats; Table 6, 300 mg/kg p.o.", "result": "1/5"}, {"measurement": "Number of dead animals/number of test animals", "setting": "rats; Table 6, 500 mg/kg p.o.", "result": "2/5"}, {"measurement": "Number of dead animals/number of test animals", "setting": "rats; Table 6, 1000 mg/kg p.o.", "result": "5/5"}]}]}
